# Reference: US9012411B2, “Formulations from derivatives of curcumin, paclitaxel, and aspirin” (Organomed Corporation, priority 2009, dated 2015)
# Entries after “also recorded” stand apart in the source; their conditions may differ. Counter-ions that a name gives are not always drawn. Marks after values point to notes of the source that are not given here.
# Assays:
# [1] = tested on: breast (SKBR3) cancer cell line; test: Cellular inhibition, Alamar Blue; type: cell-based; conditions: for inhibition of proliferation: skbr3, 48 hours
# Description: (§1) Assays were performed with 3 cancer cell lines: breast (SKBR3), pancreatic (Panc1), prostate (PC-3) and 1 normal (nor-cancer) cell line (WI-38). Compounds were delivered to the cells after dissolving in DMSO. Five dilutions per compound were tested on a total of 4 cell lines in 96 well plates. Cellular inhibition was measured using Alamar Blue. After addition of compound a 24 hour and 48 hour time point using fluorescent plate reader was taken. Data from plate reader was analyzed in the following way: % inhibition bar graphs, % inhibition line graphs and IC50 growth inhibition values. In Tables 7-14, IC50 units are Molar (M).
# [2] = tested on: prostate (PC-3) cancer cell line; test: Cellular inhibition, Alamar Blue; type: cell-based; conditions: for inhibition of proliferation: PC-3, 48 hours
# Description: as §1
# [3] = tested on: pancreatic (Panc1) cancer cell line; test: Cellular inhibition, Alamar Blue; type: cell-based; conditions: for inhibition of proliferation: Panc-1, 48 hours
# Description: as §1
# [4] = tested on: normal (non-cancer) cell line WI-38; test: Cellular inhibition, Alamar Blue; type: cell-based
# Description: as §1
# [5] = tested on: carrageenan induced rat paw edema; test: Carrageenan induced rat paw edema; type: in vivo, albino rats; conditions: for Paw circumference: Example 8 (in vivo), 100 mg/kg oral with food; for Percent inhibition of paw edema (Std. Error): Example 9, 100 mg/kg oral with food
# Description: Animals were kept under 13 hour day night cycle. Animals were given standard diet and water was provided ad, libitum. All animals were acclimatized for at least one week before the experimental session. Animals were divided in to five groups. Each group consisted of 8 animals.
# Pedal inflammation in albino rats of either sex was produced according to the method of Winter et al., (Proc Soc Exp Biol Med 1963; 111: 544-7). An injection was made with 0.1 ml of 1% carrageenan (SIGMA) suspension into the right hind foot of each rat in the plantar region. […] Control group 5 was given 0.5 ml saline and groups 1 and 2 received aspirin. Increase in linear paw circumference was measured by tying a piece of cotton thread round the rat's paw, and noting the point of intersection of two ends on a meter scale. This was taken as an index of increase in paw volume, which is a measure of oedema (Bamgbose S O A, Noamesi B K. Planta Med 1981; 42: 392-6). Measurements were taken immediately before and at 1, 2 and 3 hours after carrageenan injection. The inhibitory activity was calculated according to the following formula (Awe S O, Olajide O A, Adeboye J O, Makinde J M. Indian J Pharmacol 1998; 30: 38-42):
# [formula] Ct-Linear paw circumference 3 hours after carrageenan injection and Co-Linear paw circumference before carrageenan injection.
# Albino rats obtained from central animal house of institute were used in the study. The animals were kept under 12 hour day night cycle. Animals were given standard diet and water was provided ad libitum. All animals were acclimatized for at least one week before the experimental session. Animals were divided into twelve groups in the carrageenan induced paw edema and tail flick method. Each group consisted of 4 animal each.
# Animals were divided into eight groups in the carrageenan induced paw edema and tail flick method. Each group consisted of 6 animal each. The groups received various chemicals as given in Table 16 by oral administration with food. The following methods were used to evaluate the activity of the compositions:
# Pedal inflammation in albino rats of either sex was produced according to the method of Winter et al. (Proc. Soc. Exp. Biol. Med., 1963, 111: 544-547). An injection was made with 0.1 ml of 1% carrageenan (SIGMA) suspension into the right hind foot of each rat in the plantar region. The various chemicals were given 30 minutes before carrageenan injection. Increase in linear paw circumference was measured by tying a piece of cotton thread round the rat's paw, and noting the point of intersection of two ends on a meter scale. This was taken as an index of increase in paw volume, which is a measure of edema (Bamgbose, S. O. A. & Noamesi, B. K., Planta. Med., 1981, 42: 392-396). Measurements were taken immediately before and at 1, 2 and 3 hours after carrageenan injection. The inhibitory activity was calculated according to the following formula (Awe S O, Olajide O A, Adeboye J O, Makinde J M. Indian J. Pharmacol., 1998; 30: 38-42):
# Animals were divided into six groups in the carrageenan induced paw edema and tail flick method. Each group consisted of 8 animals each. Carrageenan-induced rat paw edema and Tail flick test were performed as discussed above in Example 8. Data were analyzed using analysis of variance (ANOVA) with Posthoc Bonferroni multi-comparisons. P<0.05 was considered as statistically significant.
# [6] = tested on: tail flick latency in rats; test: Tail flick test (analgesic activity); type: in vivo, albino rats
# Description: Rats were screened for tail flip reaction with a cut-off time of 5 seconds. For each animal, the tail flick latency was obtained thrice before drug administration and mean was used as pre-drug latency. The tail flick latencies were measured at 0, 0.5, 1, 1.5, 2 and 3 h after administration chemicals.
# Albino rats obtained from central animal house of institute were used in the study. The animals were kept under 12 hour day night cycle. Animals were given standard diet and water was provided ad libitum. All animals were acclimatized for at least one week before the experimental session. […] Each group consisted of 4 animal each.
# Rats were screened for tail flip reaction with a cut-off time of 5 seconds. For each animal, the tail flick latency was obtained thrice before drug administration and mean was used as pre-drug latency. The tail flick latencies were measured at 0, 0.5, 1, 1.5, 2 and 3 h after administration of chemicals.
# Each group consisted of 8 animals each. […] Data were analyzed using analysis of variance (ANOVA) with Posthoc Bonferroni multi-comparisons. P<0.05 was considered as statistically significant.
# [7] = In vitro enzyme hydrolysis in human serum (HPLC); type: in vitro ADME; conditions: 25% human serum; for Test compound Rate: rate of decomposition of test compound; for Salicyclic acid Rate: rate of release of salicylic acid; for Test compound Concentration: remaining test compound; for Salicyclic acid Concentration: salicylic acid released from test compound, 0.2 mg/mL
# Description: A 25% solution of human serum in 0.01M phosphate buffer was taken and the test compound (glucose aspirin or aspirin) were added to get a concentration of 0.2 mg/mL. The hydrolysis for the rate of release of salicylic acid and the rate of decomposition of the test compound were measured by HPLC.
# [8] = tested on: cancer cell lines SKBR3, Panc1, PC-3; test: Cellular inhibition, Alamar Blue, cancer cell lines taken together; type: cell-based; conditions: 24 hours
# Description: as §1
# PANC-1 cells = test: GI50 (50% inhibition of cell growth), MTT assay, 72 hours; type: cell-based; conditions: Homo sapiens, PANC-1, 72 h, 1 ng/ml to 10 ug/ml (Example 8)
# Description: (§2) The cells were plated onto a 96 well plate and treated with different concentrations of the compounds from 1 ng/ml to 10 ug/ml for 72 hours followed by MTT assay.
# (§3) The cells were plated onto a 96 well plate and treated with different concentrations of the compounds from 0.04 ng/ml to 400 ng/ml for 72 hours followed by MTT assay.
# PC3 cells = test: as above; type: cell-based; conditions: Homo sapiens, PC-3, 72 h, PC3, 72 hours, 1 ng/ml to 10 ug/ml (Example 8)
# Description: as §2, §3
# [9] = Example 5, 100 and 200 mg/kg i.p., rats
# [10] = Example 9, 100 mg/kg oral with food, 30 min
# [11] = Example 9, 100 mg/kg oral with food, 60 min
# [12] = Example 9, 100 mg/kg oral with food, 90 min
# [13] = Example 9, 100 mg/kg oral with food, 120 min
# [14] = Example 9, 100 mg/kg oral with food, 180 min
# [15] = Example 9, 100 mg/kg oral with food, column headed min
molecule,measurement,setting,value
COc1cc(/C=C/C(=O)CC(=O)/C=C/c2ccc(O)c(OC)c2)ccc1O [Curcumin],IC50,"[1]; Homo sapiens, SK-BR-3, SKBR3, 24 hours",84.1 µM
same,IC50,"[1]; Homo sapiens, SK-BR-3, SKBR3, 48 hours",99.4 µM
same,IC50,"[2]; PC3, 24 hours",29.5 µM
same,IC50,"[2]; PC3, 48 hours",24.2 µM
same,IC50,"[3]; Homo sapiens, PANC-1, PANC1, 24 hours",41.5 µM
same,IC50,"[3]; Homo sapiens, PANC-1, PANC1, 48 hours",38.2 µM
same,inhibition of normal lung cells (WI-38),"[4]; 24 hours, 100, 150 and 300 uM",over 20%
same,IC50,"[4]; Homo sapiens, WI-38, WI38, 24 hours",1000 µM
same,IC50,"[4]; Homo sapiens, WI-38, WI38, 48 hours",89.9 µM
same,Paw circumference,[5]; 0 h,3.2 mm
same,Paw circumference,[5]; 1 h,3.68 mm
same,Paw circumference,[5]; 2 h,3.45 mm
same,Paw circumference,[5]; 3 h,3.53 mm
same,Tail flick latency time,"[6]; Example 8 (in vivo), 100 mg/kg oral with food, 0 min",2.67 s
same,Tail flick latency time,"[6]; Example 8 (in vivo), 100 mg/kg oral with food, 30 min",2.58 s
same,Tail flick latency time,"[6]; Example 8 (in vivo), 100 mg/kg oral with food, 60 min",2.8* seconds
same,Tail flick latency time,"[6]; Example 8 (in vivo), 100 mg/kg oral with food, 90 min",3.18* seconds
same,Tail flick latency time,"[6]; Example 8 (in vivo), 100 mg/kg oral with food, 120 min",3.03 s
same,Tail flick latency time,"[6]; Example 8 (in vivo), 100 mg/kg oral with food, 180 min",2.68 s
same,Tail flick / analgesic activity (in words),"[6]; Example 8 (in vivo), oral, 100 mg/kg total (combinations 50 mg/kg each)",stronger activity at 60 and 90 minutes
"CC(=O)Oc1ccccc1C(=O)O[C@@H]([C@H](O)[C@H](O)CO)[C@@H](O)C=O [PMN II-168, 3-(2′-Acetyloxybenzoyl)-D-glucose]",IC50,"[1]; SKBR3, 24 hours",201 µM
same,IC50,"[1]; SKBR3, 48 hours",87.8 µM
same,inhibition of proliferation,[1]; 150 uM,~60%
same,inhibition of proliferation,[1]; 300 uM,approximately 90%
same,IC50,"[2]; PC3, 24 hours",83.2 µM
same,IC50,"[2]; PC3, 48 hours",81.4 µM
same,inhibition of proliferation,[2]; 150 uM,~65%
same,inhibition of proliferation,[2]; 300 uM,~85%
same,IC50,"[3]; PANC1, 24 hours",399 µM
same,IC50,"[3]; PANC1, 48 hours",90.5 µM
same,inhibition of proliferation,[3]; 150 uM,~60%
same,inhibition of proliferation,[3]; 300 uM,~70%
same,IC50,"[4]; WI38, 24 hours",376 µM
same,IC50,"[4]; WI38, 48 hours",310 µM
same,Suppression of carrageenan-induced paw edema (in words),[5]; [9],significantly suppressed carrageenan-induced paw edema
same,Hydrolysis rate in human serum (in words),[7]; compared with aspirin,much slower rate than aspirin
same,"Average rate, test compound","[7]; decomposition of test compound, 0-180 min",-3.3e-07 M/min
same,Test compound Rate,[7]; 0 min,0 M/min
same,Test compound Rate,[7]; 30 min,1.91e-07 M/min
same,Test compound Rate,[7]; 60 min,-2.24e-07 M/min
same,Test compound Rate,[7]; 90 min,-3.62e-07 M/min
same,Test compound Rate,[7]; 120 min,-2.96e-07 M/min
same,Test compound Rate,[7]; 180 min,-4.38e-07 M/min
same,Salicyclic acid Rate,[7]; 0 min,0 M/min
same,Salicyclic acid Rate,[7]; 30 min,0 M/min
same,Salicyclic acid Rate,[7]; 120 min,9.11e-07 M/min
same,Salicyclic acid Rate,[7]; 180 min,1.97e-07 M/min
same,"Average rate, salicyclic acid","[7]; release of salicylic acid, 0-180 min",9.08e-08 M/min
same,Test compound Concentration,[7]; 0 min,198 µM
same,Test compound Concentration,[7]; 30 min,203 µM
same,Test compound Concentration,[7]; 60 min,184 µM
same,Test compound Concentration,[7]; 90 min,165 µM
same,Test compound Concentration,[7]; 120 min,162 µM
same,Test compound Concentration,[7]; 180 min,119 µM
same,Salicyclic acid Concentration,[7]; 0 min,0 µM
same,Salicyclic acid Concentration,[7]; 30 min,0 µM
same,Salicyclic acid Concentration,[7]; 60 min,2.7 µM
same,Salicyclic acid Concentration,[7]; 90 min,2.75 µM
same,Salicyclic acid Concentration,[7]; 120 min,10.9 µM
same,Salicyclic acid Concentration,[7]; 180 min,35.4 µM
same,Tail flick latency / analgesic activity (in words),[6]; [9],significant analgesic activity
same,inhibition of cancer cell growth,[8]; 300 uM,up to 60%
same,inhibition of cancer cell growth,[8]; four lower concentrations,20%
diacetylcurcumin [NJ-58-1],IC50,"[1]; SKBR3, 24 hours",171 µM
same,IC50,"[1]; SKBR3, 48 hours",125 µM
same,IC50,"[2]; PC3, 24 hours",96.1 µM
same,IC50,"[2]; PC3, 48 hours",67 µM
same,IC50,"[3]; PANC1, 24 hours",268 µM
same,IC50,"[3]; PANC1, 48 hours",133 µM
same,inhibition of normal lung cells (WI-38),[4]; 24 hours,less than 10%
same,IC50,"[4]; WI38, 24 hours",4390 µM
same,IC50,"[4]; WI38, 48 hours",155 µM
same,"Anti-inflammatory activity, paw edema (in words)","[5]; Example 9, 100 mg/kg oral",strong
same,Percent inhibition of paw edema (Std. Error),"[5]; 1 hr, listed as Curcumin diacetate",76%
same,Percent inhibition of paw edema (Std. Error),"[5]; 1 hr, listed as NJ-104-4",76.49 (8.35) %
same,Percent inhibition of paw edema (Std. Error),"[5]; 2 hr, listed as Curcumin diacetate",80%
same,Percent inhibition of paw edema (Std. Error),"[5]; 2 hr, listed as NJ-104-4",80.56 (5.84) %
same,Percent inhibition of paw edema (Std. Error),"[5]; 3 hr, listed as Curcumin diacetate",76%
same,Percent inhibition of paw edema (Std. Error),"[5]; 3 hr, listed as NJ-104-4",76.74 (8.22) %
same,Tail flick latency time,[6]; [10],3.675 s
same,Tail flick latency time,[6]; [11],3.6125 s
same,Tail flick latency time,[6]; [12],3.6375 s
same,Tail flick latency time,[6]; [13],3.4375 s
same,Tail flick latency time,[6]; [14],3.675 s
same,Tail flick latency time,[6]; [15],3.4375 s
curcumin-glutarate [MT-76-1],IC50,"[1]; SKBR3, 24 hours",169 µM
same,IC50,"[1]; SKBR3, 48 hours",118 µM
same,IC50,"[2]; PC3, 24 hours",127 µM
same,IC50,"[2]; PC3, 48 hours",71.6 µM
same,IC50,"[3]; PANC1, 24 hours",35.4 µM
same,IC50,"[3]; PANC1, 48 hours",123 µM
same,IC50,"[4]; WI38, 24 hours",298 µM
same,IC50,"[4]; WI38, 48 hours",166 µM
Curcumin diglutarate [NJ-104-5],Percent inhibition of paw edema (Std. Error),[5]; 1 hr,49.26 (3.94) %
same,Percent inhibition of paw edema (Std. Error),[5]; 2 hr,37.50 (5.11) %
same,Percent inhibition of paw edema (Std. Error),[5]; 3 hr,20.05 (8.34) %
same,"Analgesic activity, tail flick (in words)","[6]; Example 9, 100 mg/kg oral",strong activity at 90 and 180 minutes; also recorded: strong analgesic activity
same,Tail flick latency time,[6]; [10],3.5625 s
same,Tail flick latency time,[6]; [11],3.6125 s
same,Tail flick latency time,[6]; [12],3.7375 s
same,Tail flick latency time,[6]; [13],3.05 s
same,Tail flick latency time,[6]; [14],3.5625 s
same,Tail flick latency time,[6]; [15],3.05 s
"Nc1ccn([C@@H]2O[C@H](CO)[C@@H](O)C2(F)F)c(=O)n1 [NJ-92-1, Gemcitabine.HCl]",GI50,PANC-1 cells,7.18 µg/mL
same,GI50,PC3 cells,3.85 µg/mL
